From article doi:10.1101/2023.11.09.566408v1 (bioRxiv, 2023)

Columns and labels:
[1] = rats, IV, cited from earlier work
[2] = format: in vivo, mice; details: male, Swiss, mouse, plasma, po, 100 ug

In the case of `CC[C@H](C)[C@H](NC(=O)[C@@H]1CCCN1C(=O)CNC(=O)[C@H](Cc1ccccc1)NC(=O)[C@H](CC(N)=O)NC(=O)[C@H](CC(N)=O)NC(=O)[C@H](CO)NC(=O)[C@H](CO)NC(=O)[C@H](Cc1c[nH]cn1)NC(=O)[C@@H](NC(=O)[C@H](CC(C)C)NC(=O)[C@H](Cc1ccccc1)NC(=O)[C@H](CC(N)=O)NC(=O)[C@H](C)NC(=O)[C@H](CC(C)C)NC(=O)[C@H](CCCNC(=N)N)NC(=O)[C@H](CCC(N)=O)NC(=O)[C@@H](NC(=O)[C@H](C)NC(=O)[C@@H]1CSSC[C@H](NC(=O)[C@@H](N)CCCCN)C(=O)N[C@@H](CC(N)=O)C(=O)N[C@@H]([C@@H](C)O)C(=O)N[C@@H](C)C(=O)N[C@@H]([C@@H](C)O)C(=O)N1)[C@@H](C)O)C(C)C)C(=O)N[C@@H](CC(C)C)C(=O)N1CCC[C@H]1C(=O)N1CCC[C@H]1C(=O)N[C@H](C(=O)N[C@@H](CC(N)=O)C(=O)N[C@H](C(=O)NCC(=O)N[C@@H](CO)C(=O)N[C@@H](CC(N)=O)C(=O)N[C@H](C(=O)N[C@@H](Cc1ccc(O)cc1)C(N)=O)[C@@H](C)O)C(C)C)[C@@H](C)O` [pramlintide], the plasma concentration ([1]; 1 μg) is given as 1,000 pM, the plasmatic concentration ([1]; 10 μg) is given as 10,000 pM and the Tmax [2] is given as 30 min.
